Test results from US20070098826A1, “Use of pinitol or chiroinositol for protecting the liver” (AMICOGEN, INC., priority 2003, published 2007).

Tests used:
[1] = rats, oral, 5,000 mg/kg, day 14
Protocol: 6 week-old, specific pathogen-free Sprague-Dawley female rats (15 heads), each weighing about 130 to 147 g, and male rats (15 heads), each weighing about 110 to 123 g, were bred under the condition of 23±3° C., 55±15% relative humidity and 12 L/12 D photoperiod. Fodder (Harlan, U.S.A.) and water were sterilized and fed to the rats. The rats were acclimated for 1 week before the administration of pinitol.
Pinitol was dissolved in physiological saline and the solution was orally administered to each rat in an amount of 5,000 mg/kg of rat body weight. […] The weight changes of the rats were recorded at day 1, 3, 7 and 14 to examine the effect of pinitol. Further, on day 14, the rats were sacrificed and the internal organs were visually examined.

[2] = system: glutathione content of liver; assay: Content of glutathione in liver of streptozotocin diabetic rats; format: in vivo, Sprague-Dawley rats; conditions: for Glutathione content as compared to the normal group / Glutathione content Relative value: 10 mg/kg; for Glutathione content (μ mole/g): 10 mg/kg oral everyday for 4 days, liver; for Glutathione content Relative value: normal group = 100
Protocol: In order to induce diabetes in rats, streptozotocin (Sigma Chemical Co., USA) dissolved in 0.01M citrate buffer solution (pH 4.5) was injected into the abdominal cavity of 8 week-old Sprague-Dawley rats in an amount of 45 mg/kg of rat body weight. […] The diabetic rats were divided into 3 groups, each of 12-15 rats, and pinitol or chiroinositol dissolved in 10 ml of water was orally administered to the rats of two groups (experimental groups 1 and 2) in an amount of 10 mg/kg of rat body weight everyday for 4 days. Rats of the normal group and control group (diabetic group) were each treated with 10 ml of distilled water. After fasting during 18 hours, the rats were anesthetized with ethyl ether, sacrificed, the liver was taken and washed with cold physiological saline. The glutathione content of the homogenized liver solution was measured according to the method of Ellman (Arch. Biochem. Biophy., 70-77 (1959)) and the result is shown in Table IV.

[3] = system: SOD activity in liver; assay: Determination of SOD activity in liver of carbon tetrachloride treated rats; format: in vivo, Sprague-Dawley rats; conditions: for SOD activity (U/g Liver): CCl4 i.p., liver 24 hours later; for SOD activity Relative Value (%): control group = 100
Protocol: The rats were divided into 7 groups and pinitol dissolved in 10 ml of water was orally administered to the rats of the experimental groups in an amount of 200-1000 mg/kg of rat body weight everyday for 4 days. The comparative group rats were treated with Silymarin (Sigma Chemical Co.) in an amount of 200 mg/kg, the normal and control groups were each treated with 10 ml of distilled water. On day 4, a mixture of carbon tetrachloride and soybean oil (1:1 (v/v)) was injected intraperitoneally into the rats except the rats of the normal group in an amount of 0.5 ml/kg, 90 minutes after the administration of pinitol. 24 hours thereafter, SOD activity of the liver taken out from each rat was measured according to the method of Neoot et al., (Methods Enzymol., 186: 209-219 (1993)) and tested by student t-test.

[4] = system: Liver Damaged by Carbon Tetrachloride; assay: Protective activity for the liver damaged by carbon tetrachloride (blood GOT and GPT); format: in vivo, Sprague-Dawley rats; conditions: CCl4 rats; for GOT / GPT: blood on day 8; for GOT Inhibition (%) / GPT Inhibition (%): day 8
Protocol: The rats were divided into 8 groups and carbon tetrachloride was injected subcutaneously into the rats except the rats of the normal group in an amount of 0.5 ml/kg at 1st and 5th day. On day 2, pinitol or chiroinositol dissolved in 10 ml of water was orally administered to the rats of the experimental groups in an amount of 5-20 mg/kg of rat body weight. The normal and control groups were treated with 10 ml of distilled water instead of pinitol. On day 8, GOT and GPT concentrations in the blood sample taken from the orbital vein of each rat was measured by using blood analyzer (Vitros DT-60, Johnson & Johnson) and the result is shown in Table II. The degree of inhibition (%) was then calculated in accordance with the following equation: [formula]

[5] = system: serum GOT, GPT and γ-GTP levels; assay: Protective activity for liver in adults with elevated serum GOT or γ-GTP (serum GOT, GPT, γ-GTP); format: in vivo, human; conditions: oral 600 mg daily for 2 months
Protocol: Pinitol was orally administered to adults (the average age: 51.8 years, man 7 and female 8) showing serum GOT or γ-GPT level higher than 50 IU/L at a daily dose of 600 mg for 2 months. Serum GOT, GPT and γ-GTP levels were determined before and after the administration.

Row | Structure (SMILES) | Glutathione content as compared to the normal group [2] [%] | Glutathione content (μ mole/g) [2] [μ mole/g] | Glutathione content Relative value [2] | GOT ([4]; 5 mg/kg oral) [IU/L] | GPT ([4]; 5 mg/kg oral) [IU/L] | GOT Inhibition (%) ([4]; 5 mg/kg oral) | GPT Inhibition (%) ([4]; 5 mg/kg oral) | GOT ([4]; 10 mg/kg oral) [IU/L] | GPT ([4]; 10 mg/kg oral) [IU/L] | GOT Inhibition (%) ([4]; 10 mg/kg oral) | GPT Inhibition (%) ([4]; 10 mg/kg oral) | GOT ([4]; 20 mg/kg oral) [IU/L] | GPT ([4]; 20 mg/kg oral) [IU/L] | GOT Inhibition (%) ([4]; 20 mg/kg oral) | GPT Inhibition (%) ([4]; 20 mg/kg oral) | other results
1 | CO[C@H]1[C@H](O)[C@@H](O)[C@@H](O)[C@H](O)[C@@H]1O [Pinitol, pinitol] | 96 | 16.38 ± 2.43 | 95.8 | 298 ± 28 | 134 ± 7 | 49.7 | 54.6 | 188 ± 22 | 92 ± 5 | 73.4 | 72.9 | 192 ± 17 | 75 ± 4 | 72.6 | 80.3 | Autopsy, pathological abnormality of internal organs [1]: did not develop any pathological abnormality; SOD activity lower than that of the control group by ([3]; 200 mg/kg): 7%; SOD activity (U/g Liver) ([3]; 200 mg/kg oral everyday for 4 days): 217 ± 74 U/g Liver; SOD activity Relative Value (%) ([3]; 200 mg/kg): 93%; SOD activity higher than that of the control group by ([3]; 300 mg/kg): 24%; SOD activity (U/g Liver) ([3]; 300 mg/kg oral everyday for 4 days): 289 ± 45 U/g Liver; SOD activity Relative Value (%) ([3]; 300 mg/kg): 124%; Effect on SOD activity in the liver ([3]; 300 mg/kg, p<0.05): raises SOD activity in the liver; SOD activity higher than that of the control group by ([3]; 500 mg/kg): 44%; SOD activity (U/g Liver) ([3]; 500 mg/kg oral everyday for 4 days): 335 ± 52 U/g Liver; SOD activity Relative Value (%) ([3]; 500 mg/kg): 144%; SOD activity higher than that of the control group by ([3]; 1000 mg/kg): 35%; SOD activity (U/g Liver) ([3]; 1000 mg/kg oral everyday for 4 days): 315 ± 38 U/g Liver; SOD activity Relative Value (%) ([3]; 1000 mg/kg): 135%; Serum GOT After administration [5]: 31.4 ± 3.0 IU/L; Serum GPT After administration [5]: 43.2 ± 8.1 IU/L; Serum γ-GTP After administration [5]: 82.6 ± 17.5 IU/L; Serum GOT Degree of decrease (%) ([5]; vs before administration): 45.3%; Serum GPT Degree of decrease (%) ([5]; vs before administration): 51.8%; Serum γ-GTP Degree of decrease (%) ([5]; vs before administration): 41.1%
2 | OC1C(O)C(O)C(O)C(O)C1O (centres unmarked) [chiroinositol] | 85 | 14.52 ± 0.57 | 85.0 | 321 ± 35 | 156 ± 12 | 44.0 | 45.0 | 205 ± 28 | 80 ± 9 | 69.4 | 78.2 | 174 ± 26 | 88 ± 7 | 76.1 | 74.7 | 
